Data: patent publication US20260297080A1, “BICYCLIC COMPOUNDS AS CDK INHIBITORS” (BeOne Medicines I GmbH, priority 2022, published 2026)

Key:
CDK2/Cyclin E1 = CDK2/Cyclin E1 (Homo sapiens, UniProt P24941); experiment: CDK2/Cyclin E1 Biochemical Assay (TR-FRET), 0.060 mM ATP; conditions: 0.15 μM Rb (Ser780)-biotin substrate, pH7.0, 60 min preincubation, 120 min reaction, room temperature
Outline: (§1)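 Phosphorylation of a biotin-tagged Rb Ser780 peptide (0.15 μM) is measured by time-resolved FRET between a europium-labelled phospho-specific antibody and streptavidin-XL665. Compound (0–10 μM) sits with enzyme 60 min first; the kinase reaction then proceeds 120 min at room temperature, pH 7.0.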

CDK1/Cyclin B1 = CDK1/Cyclin B1 (Homo sapiens, UniProt P06493); experiment: CDK1/Cyclin B1 Biochemical Assay (TR-FRET), 0.015 mM ATP; conditions: 0.15 μM Rb (Ser780)-biotin substrate, pH7.0, 60 min preincubation, 120 min reaction, room temperature
Outline: as §1

Chain of CDK1/Cyclin B1 (P06493 whole entry): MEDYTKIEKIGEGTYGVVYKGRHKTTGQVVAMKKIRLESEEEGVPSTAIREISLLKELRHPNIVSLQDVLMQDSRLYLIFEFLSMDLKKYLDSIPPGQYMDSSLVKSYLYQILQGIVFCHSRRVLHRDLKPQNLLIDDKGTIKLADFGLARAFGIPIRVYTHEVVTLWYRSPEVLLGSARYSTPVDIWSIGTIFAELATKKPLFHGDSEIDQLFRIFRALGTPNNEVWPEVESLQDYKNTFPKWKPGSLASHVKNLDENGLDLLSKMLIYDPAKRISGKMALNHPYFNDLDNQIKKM
Chain of CDK1/Cyclin B1 (P14635 whole entry partner): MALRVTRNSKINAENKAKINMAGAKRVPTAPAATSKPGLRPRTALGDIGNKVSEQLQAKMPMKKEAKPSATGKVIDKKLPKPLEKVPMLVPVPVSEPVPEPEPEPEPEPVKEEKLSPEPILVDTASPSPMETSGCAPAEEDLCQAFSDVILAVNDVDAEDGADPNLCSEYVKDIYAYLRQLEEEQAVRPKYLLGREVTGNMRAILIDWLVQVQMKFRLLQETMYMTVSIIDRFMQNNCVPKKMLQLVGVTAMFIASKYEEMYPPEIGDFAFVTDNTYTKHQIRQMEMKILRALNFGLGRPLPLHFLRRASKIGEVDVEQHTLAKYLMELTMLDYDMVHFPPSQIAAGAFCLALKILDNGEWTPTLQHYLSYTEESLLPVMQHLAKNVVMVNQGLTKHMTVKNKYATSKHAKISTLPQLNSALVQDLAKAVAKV

| Structure (SMILES) | IC50 (CDK2/Cyclin E1) [nM] | IC50 (CDK1/Cyclin B1) [nM] |
| --- | --- | --- |
| CC(C)NC(=O)O[C@H]1CC[C@@H](c2cc(Nc3cc(F)c4c(c3)CNS4(=O)=O)n[nH]2)C1 (relative stereo) [Example 29, cis-3-(3-((7-fluoro-1,1-dioxido-2,3-dihydrobenzo[d]isothiazol-5-yl)amino)-1H-pyrazol-5-yl)cyclopentyl isopropylcarbamate] | 2.2 | 113 |
| CC(C)NC(=O)O[C@@H]1CC[C@H](c2cc(Nc3ccc4c(c3F)CS(=O)(=O)N4)n[nH]2)C1 (single isomer, unassigned) [Example 251a] | 1.1 | 74 |
| CC(C)NC(=O)O[C@H]1CC[C@@H](c2cc(Nc3ccc4c(c3F)CN(CCCN(C)C)S4(=O)=O)n[nH]2)C1 (relative stereo) [Example 73, cis-3-(3-((2-(3-(dimethylamino)propyl)-4-fluoro-1,1-dioxido-2,3-dihydrobenzo[d]isothiazol-5-yl)amino)-1H-pyrazol-5-yl)cyclopentyl isopropylcarbamate] | 7.9 | 583 |
| CC1(NC(=O)O[C@H]2CC[C@@H](c3cc(Nc4ccc5c(c4F)CS(=O)(=O)N5C4CC4)n[nH]3)C2)COC1 (relative stereo) [Example 362, cis-3-(3-((1-cyclopropyl-4-fluoro-2,2-dioxido-1,3-dihydrobenzo[c]isothiazol-5-yl)amino)-1H-pyrazol-5-yl)cyclopentyl(3-methyloxetan-3-yl)carbamate] | 3.8 | 133 |
| CC1(NC(=O)O[C@H]2CC[C@@H](c3cc(Nc4ccc5c(c4F)CNS5(=O)=O)n[nH]3)C2)CCOC1 (single isomer, unassigned) [Example 162d, cis-3-(3-((4-fluoro-1,1-dioxido-2,3-dihydrobenzo[d]isothiazol-5-yl)amino)-1H-pyrazol-5-yl)cyclopentyl(3-methyltetrahydrofuran-3-yl)carbamate] | 3.7 | 158 |
| CC[C@H](C)NC(=O)O[C@H]1CC[C@@H](c2cc(Nc3ccc4c(c3F)CS(=O)(=O)N4CCO)n[nH]2)C1 (relative stereo) [Example 273, cis-3-(3-((4-fluoro-1-(2-hydroxyethyl)-2,2-dioxido-1,3-dihydrobenzo[c]isothiazol-5-yl)amino)-1H-pyrazol-5-yl)cyclopentyl((S)-sec-butyl)carbamate] | 2.5 | 43 |
| CCCNC(=O)O[C@H]1CC[C@@H](c2cc(Nc3cc4c(cc3F)S(=O)(=O)NC4)n[nH]2)C1 (single isomer, unassigned) [Example 42b, cis-3-(3-((6-fluoro-1,1-dioxido-2,3-dihydrobenzo[d]isothiazol-5-yl)amino)-1H-pyrazol-5-yl)cyclopentyl propylcarbamate] | 5.5 | 128 |
| [2H]C([2H])([2H])N1c2c(F)cc(Nc3cc([C@@H]4CC[C@H](OC(=O)NCCC)C4)[nH]n3)cc2CS1(=O)=O (single isomer, unassigned) [Example 290b, cis-3-(3-((7-fluoro-1-(methyl-d3)-2,2-dioxido-1,3-dihydrobenzo[c]isothiazol-5-yl)amino)-1H-pyrazol-5-yl)cyclopentyl propylcarbamate] | 7.5 | 94 |
| CN1c2ccc(Nc3cc([C@@H]4CC[C@H](OC(=O)NC5(CO)CC5)C4)[nH]n3)c(F)c2CS1(=O)=O (relative stereo) [Example 350, cis-3-(3-((4-fluoro-1-methyl-2,2-dioxido-1,3-dihydrobenzo[c]isothiazol-5-yl)amino)-1H-pyrazol-5-yl)cyclopentyl(1-(hydroxymethyl)cyclopropyl)carbamate] | 20 | 321 |
| CC(C)NC(=O)O[C@H]1CC[C@@H](c2cc(Nc3ccc4c(c3F)CN(C)S4(=O)=O)n[nH]2)C1 (single isomer, unassigned) [Example 121a, cis-3-(3-((4-fluoro-2-methyl-1,1-dioxido-2,3-dihydrobenzo[d]isothiazol-5-yl)amino)-1H-pyrazol-5-yl)cyclopentyl isopropylcarbamate] | 5.8 | 425 |
| O=C(NC1CCC1)O[C@@H]1CC[C@H](c2cc(Nc3ccc4c(c3F)CS(=O)(=O)N4)n[nH]2)C1 (single isomer, unassigned) [Example 399a] | 6.2 | 264 |
| CC1(NC(=O)O[C@H]2CC[C@@H](c3cc(Nc4ccc5c(c4F)CS(=O)(=O)N5CC(F)(F)F)n[nH]3)C2)CC1 (single isomer, unassigned) [Example 264a, cis-3-(3-((4-fluoro-2,2-dioxido-1-(2,2,2-trifluoroethyl)-1,3-dihydrobenzo[c]isothiazol-5-yl)amino)-1H-pyrazol-5-yl)cyclopentyl(1-methylcyclopropyl)carbamate] | 1.3 | 65 |
| CCCNC(=O)O[C@@H]1CC[C@H](c2cc(Nc3ccc4c(c3F)CNS4(=O)=O)n[nH]2)C1 (single isomer, unassigned) [Example 138a] | 2.6 | 237 |
| CC(C)NC(=O)O[C@H]1CC[C@@H](c2cc(Nc3ccc4c(c3F)CN(C3CCCNC3=O)S4(=O)=O)n[nH]2)C1 (relative stereo) [Example 86, cis-3-(3-((4-fluoro-1,1-dioxido-2-(2-oxopiperidin-3-yl)-2,3-dihydrobenzo[d]isothiazol-5-yl)amino)-1H-pyrazol-5-yl)cyclopentyl isopropylcarbamate] | 7.8 | 735 |
| [2H]C([2H])([2H])N1c2c(F)cc(Nc3cc([C@@H]4CC[C@H](OC(=O)NCCC)C4)[nH]n3)cc2CS1(=O)=O (single isomer, unassigned) [Example 290a, cis-3-(3-((7-fluoro-1-(methyl-d3)-2,2-dioxido-1,3-dihydrobenzo[c]isothiazol-5-yl)amino)-1H-pyrazol-5-yl)cyclopentyl propylcarbamate] | 16 | 356 |
| CC(C)NC(=O)O[C@H]1CC[C@@H](c2cc(Nc3ccc4c(c3)CNS4(=O)=O)n[nH]2)C1 (relative stereo) [Example 2, cis-3-(3-((1,1-dioxido-2,3-dihydrobenzo[d]isothiazol-5-yl)amino)-1H-pyrazol-5-yl)cyclopentyl isopropylcarbamate] | 0.9 | 36.1 |
| CC(C)(C)NC(=O)O[C@@H]1CC[C@H](c2cc(Nc3cc4c(cc3F)NS(=O)(=O)C4)n[nH]2)C1 [Example 404a] | 18 | 717 |
| CC(C)NC(=O)O[C@H]1CC[C@@H](c2cc(Nc3ccc4c(c3F)CNS4(=O)=O)n[nH]2)C1 (single isomer, unassigned) [Example 9a, cis-3-(3-((4-fluoro-1,1-dioxido-2,3-dihydrobenzo[d]isothiazol-5-yl)amino)-1H-pyrazol-5-yl)cyclopentyl isopropylcarbamate] | 4.5 | 375 |
| O=C(NCC1CC1)O[C@H]1CC[C@@H](c2cc(Nc3ccc4c(c3F)CNS4(=O)=O)n[nH]2)C1 (relative stereo) [Example 414, cis-3-(3-((4-fluoro-1,1-dioxido-2,3-dihydrobenzo[d]isothiazol-5-yl)amino)-1H-pyrazol-5-yl)cyclopentyl(cyclopropylmethyl)carbamate] | 7.3 | 232 |
